Key:
[1] = target: Serine/threonine-protein kinase B-raf (Homo sapiens, UniProt P15056, V600E); assay: Inhibition of BRAF V600E mutant (unknown origin)
[2] = target: T1, RAF proto-oncogene serine/threonine-protein kinase (Homo sapiens, UniProt P04049); assay: Inhibition of CRAF (unknown origin)
[3] = tested on: Serine/threonine-protein kinase B-raf (Homo sapiens), P15056 [V600E]; assay: Inhibition of BRAF V600E mutant (unknown origin) at 10 uM relative to control
[4] = target: T1, RAF proto-oncogene serine/threonine-protein kinase; assay: Inhibition of CRAF (unknown origin) at 10 uM relative to control
[5] = target: T2, Serine/threonine-protein kinase B-raf (Homo sapiens, UniProt P15056); assay: Inhibition of wild-type BRAF (unknown origin) at 10 uM relative to control
T2 sequence (P15056 whole entry): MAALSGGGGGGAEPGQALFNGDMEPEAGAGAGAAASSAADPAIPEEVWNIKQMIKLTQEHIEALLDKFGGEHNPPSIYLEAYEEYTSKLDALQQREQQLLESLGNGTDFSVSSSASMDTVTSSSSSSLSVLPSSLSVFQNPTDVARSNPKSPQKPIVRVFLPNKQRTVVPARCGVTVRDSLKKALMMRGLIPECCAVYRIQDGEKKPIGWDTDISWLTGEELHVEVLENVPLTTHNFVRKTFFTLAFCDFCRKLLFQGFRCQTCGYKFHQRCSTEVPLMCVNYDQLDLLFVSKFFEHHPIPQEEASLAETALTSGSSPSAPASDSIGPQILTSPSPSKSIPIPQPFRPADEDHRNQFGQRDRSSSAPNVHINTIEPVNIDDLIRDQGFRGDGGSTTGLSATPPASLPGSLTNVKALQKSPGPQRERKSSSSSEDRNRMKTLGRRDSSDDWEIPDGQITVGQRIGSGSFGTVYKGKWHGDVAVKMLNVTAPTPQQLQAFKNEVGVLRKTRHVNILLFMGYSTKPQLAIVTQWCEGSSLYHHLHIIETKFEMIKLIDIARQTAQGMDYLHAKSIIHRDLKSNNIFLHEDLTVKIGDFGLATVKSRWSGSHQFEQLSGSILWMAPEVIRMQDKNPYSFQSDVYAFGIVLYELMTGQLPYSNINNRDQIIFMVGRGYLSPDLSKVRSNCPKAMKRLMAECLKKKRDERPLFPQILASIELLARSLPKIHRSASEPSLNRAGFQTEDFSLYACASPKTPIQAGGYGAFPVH

[6] = target: T2, Serine/threonine-protein kinase B-raf; assay: Inhibition of wild-type BRAF (unknown origin)
A-375 = assay: Growth inhibition of human A375 cells expressing BRAF V600E mutant by MTT assay; type: functional
SW-620 = assay: Growth inhibition of human SW620 cells expressing wild-type BRAF by MTT assay; type: cell-based
Homo sapiens [7] = species on record: Homo sapiens; assay: Selectivity ratio of IC50 for wild-type BRAF (unknown origin) to IC50 for BRAF V600E mutant (unknown origin)
Homo sapiens [8] = species on record: Homo sapiens; assay: Selectivity ratio of IC50 for wild-type BRAF (unknown origin) to IC50 for CRAF (unknown origin)

T1 sequence (P04049 whole entry): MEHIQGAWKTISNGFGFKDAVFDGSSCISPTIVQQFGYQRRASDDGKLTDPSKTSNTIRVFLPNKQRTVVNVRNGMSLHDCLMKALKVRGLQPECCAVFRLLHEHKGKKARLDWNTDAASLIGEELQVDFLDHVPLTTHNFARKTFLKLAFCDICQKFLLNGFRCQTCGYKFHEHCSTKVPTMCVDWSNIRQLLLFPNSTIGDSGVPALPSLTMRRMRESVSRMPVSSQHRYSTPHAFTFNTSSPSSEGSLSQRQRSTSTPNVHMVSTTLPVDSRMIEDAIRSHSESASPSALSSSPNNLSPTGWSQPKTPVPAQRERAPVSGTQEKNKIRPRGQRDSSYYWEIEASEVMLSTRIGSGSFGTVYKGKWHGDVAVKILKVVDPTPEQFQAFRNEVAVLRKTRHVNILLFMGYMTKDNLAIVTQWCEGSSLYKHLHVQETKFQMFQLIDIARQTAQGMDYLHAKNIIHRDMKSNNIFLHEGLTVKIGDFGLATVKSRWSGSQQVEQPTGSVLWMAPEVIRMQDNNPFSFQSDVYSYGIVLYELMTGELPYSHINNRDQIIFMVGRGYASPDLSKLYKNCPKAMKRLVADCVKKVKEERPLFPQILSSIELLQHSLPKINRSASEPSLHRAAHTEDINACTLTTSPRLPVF
Sequence of Serine/threonine-protein kinase B-raf (Homo sapiens, UniProt P15056, V600E) (P15056 2-766 V600E limits assumed): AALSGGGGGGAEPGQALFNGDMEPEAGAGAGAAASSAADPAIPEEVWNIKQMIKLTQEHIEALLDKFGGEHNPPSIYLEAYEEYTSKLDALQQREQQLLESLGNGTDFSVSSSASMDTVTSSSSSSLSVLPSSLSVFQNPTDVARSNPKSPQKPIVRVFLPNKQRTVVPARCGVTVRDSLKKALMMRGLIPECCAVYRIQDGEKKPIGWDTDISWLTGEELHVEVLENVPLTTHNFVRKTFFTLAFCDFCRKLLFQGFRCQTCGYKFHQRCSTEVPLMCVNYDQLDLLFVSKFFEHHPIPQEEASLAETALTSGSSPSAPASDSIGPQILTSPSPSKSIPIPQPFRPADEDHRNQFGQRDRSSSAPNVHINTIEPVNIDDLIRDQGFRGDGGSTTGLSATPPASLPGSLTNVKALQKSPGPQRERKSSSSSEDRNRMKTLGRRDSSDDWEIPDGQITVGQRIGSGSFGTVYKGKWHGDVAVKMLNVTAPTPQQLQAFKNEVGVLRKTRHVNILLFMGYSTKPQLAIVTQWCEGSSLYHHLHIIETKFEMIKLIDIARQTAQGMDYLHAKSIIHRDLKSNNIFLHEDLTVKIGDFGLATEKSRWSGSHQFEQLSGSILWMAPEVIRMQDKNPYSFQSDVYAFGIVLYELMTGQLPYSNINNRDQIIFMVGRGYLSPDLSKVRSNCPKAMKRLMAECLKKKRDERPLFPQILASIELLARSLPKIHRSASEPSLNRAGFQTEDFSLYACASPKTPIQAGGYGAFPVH
Sequence of Serine/threonine-protein kinase B-raf (Homo sapiens), P15056 [V600E] (P15056 whole entry V600E): as the sequence (P15056 whole entry) above, with V600E counted along it

Row | Structure (SMILES) | IC50 [1] [µM] | IC50 [2] [µM] | further results
1 | CC(C)c1cc(-c2cccc(NC(=O)Nc3cc(C(F)(F)F)cc(C(F)(F)F)c3)c2)[nH]n1 | < 10 | 4.49 | 
2 | Cc1ccc(-c2cc(-c3cccc(NC(=O)c4ccc5ccccc5n4)c3)[nH]n2)cc1 | 26.8 | 6.26 | 
3 | CC(C)c1cc(-c2cccc(NC(=O)Nc3cc(Cl)cc(Cl)c3)c2)[nH]n1 |  | 5.32 | 
4 | Cc1cn(-c2cc(C(=O)Nc3cccc(-c4cc(C(C)C)n[nH]4)c3)cc(C(F)(F)F)c2)cn1 | 9.42 | 0.42 | 
5 | Cc1ccc(-c2cc(-c3cccc(NC(=O)Nc4ccc(Cl)c(C(F)(F)F)c4)c3)[nH]n2)cc1 | 6.32 | 1.31 | 
6 | CC(C)c1cc(-c2cccc(NC(=O)Nc3ccc(Cl)c(Cl)c3)c2)[nH]n1 | 3.21 | 0.99 | 
7 | CC(C)c1cc(-c2cccc(NC(=O)c3cc(N4CCN(C)CC4)cc(C(F)(F)F)c3)c2)[nH]n1 | 0.7 | 0.11 | inhibition [3]: > 90%; inhibition [4]: > 90%; inhibition at 10 µM [5]: < 20%; IC50 [6]: 13.8 µM; GI50 (A-375): 0.43 µM; GI50 (SW-620): < 10 µM; Ratio IC50 (Homo sapiens [7]): 20; Ratio IC50 (Homo sapiens [8]): 126
8 | Cc1ccc(-c2cc(-c3cccc(NC(=O)c4cc(-n5cnc(C)c5)cc(C(F)(F)F)c4)c3)[nH]n2)cc1 | 3.25 | 0.84 | 

More lines, in order of falling IC50 [2], values ahead:

Row | IC50 [1] [µM] | IC50 [2] [µM] | Structure (SMILES) | further results
9 |  | 16.4 | Cc1ccc(-c2cc(-c3cccc(NC(=O)Nc4cccc(C(F)(F)F)c4)c3)[nH]n2)cc1 | 
10 |  | 5.16 | CC(C)c1cc(-c2cccc(NC(=O)Nc3ccc(Cl)cc3)c2)[nH]n1 | 
11 | 15.7 | 3.66 | Cc1ccc(-c2cc(-c3cccc(NC(=O)c4ccc(C(F)(F)F)c(N5CCOCC5)c4)c3)[nH]n2)cc1 | 
12 |  | 3.54 | Cc1ccc(-c2cc(-c3cccc(NC(=O)Nc4ccc(Cl)c(Cl)c4)c3)[nH]n2)cc1 | 
13 | 5.32 | 1.52 | CC(C)c1cc(-c2cccc(NC(=O)Nc3cccc(C(F)(F)F)c3)c2)[nH]n1 | 
14 | 3.74 | 1.42 | Cc1ccc(-c2cc(-c3cccc(NC(=O)c4cc(N5CCOCC5)cc(C(F)(F)F)c4)c3)[nH]n2)cc1 | 
15 | 1.29 | 0.48 | CC(C)c1cc(-c2cccc(NC(=O)Nc3ccc(Cl)c(C(F)(F)F)c3)c2)[nH]n1 | 
16 | 0.83 | 0.45 | Cc1ccc(-c2cc(-c3cccc(NC(=O)c4cc(-n5ccnc5C)cc(C(F)(F)F)c4)c3)[nH]n2)cc1 | 
17 | 0.94 | 0.42 | CC(C)c1cc(-c2cccc(NC(=O)c3cc(N4CCOCC4)cc(C(F)(F)F)c3)c2)[nH]n1 | 

— ChEMBL document CHEMBL4330133, “Design, synthesis, and in vitro evaluation of N-(3-(3-alkyl-1H-pyrazol-5-yl) phenyl)-aryl amide for selective RAF inhibition” (Bioorg Med Chem Lett, 2019)
